In patent US20120083522A1, “MODULATION OF INFLAMMATORY RESPONSES BY FACTOR XI” (Isis Pharmaceuitcals, inc., priority 2009, published 2012):
In the oligonucleotide strings, read from the 5' end, every base follows the letter of its sugar. An asterisk marks phosphorothioate; unmarked linkages are phosphodiester. Other units and linkages are bracketed, terminal groups are in braces. A string of capitals states the bases alone. e = 2'-O-(2-methoxyethyl) (MOE); [5mC] = 5-methylcytosine; d = 2'-deoxy (DNA)

Assays:
[1] = tested on: bradykinin; experiment: Colitis Study E: bradykinin levels in colon; assay type: in vivo, Swiss Webb mice; conditions: for Bradykinin levels in the colons: DSS-treated mice, day 7, 40 mpk
Procedure: Two groups 8 Swiss Webb mice were dosed with 40 mg/kg of ISIS 404071 injected subcutaneously twice a week for 3 weeks. Two control groups of 8 Swiss Webb mice were dosed with PBS subcutaneously twice a week for 3 weeks. Both the ASO treated groups and one of the control groups were then given 4% DSS in distilled water for 7 days ad libitum. One of the ASO and DSS treated groups was also given intravenous injections of 20 μg of recombinant human Factor XI protein (Haematologic Technologies Inc.) for 7 consecutive days, starting the day before DSS treatment. Mice were sacrificed at the end of the study on day 7 after DSS was administered.
The effect of antisense inhibition of Factor XI on kinin levels in the colon was evaluated (Phoenix Pharmaceuticals, Burlingame, Calif.) at the end of the study on day 7 after DSS was administered and the results are presented in Table 40.

[2] = tested on: OVA/alum-induced asthma model; experiment: OVA-induced asthma model: mucus production (Example 13); assay type: in vivo, BALB/c mice
Procedure: The mice were divided into four treatment groups of 5 mice each. One group received subcutaneous injections of ISIS 404071 at a dose of 50 mg/kg twice a week for 4 weeks. One group of mice received subcutaneous injections of control oligonucleotide, ISIS 421208, which is a mismatch oligonucleotide sequence of ISIS 404071, at a dose of 50 mg/kg twice a week for 4 weeks. Two groups of mice received subcutaneous injections of PBS twice a week for 4 weeks. One PBS group remained untreated and served as the control group. The second PBS group and both the oligonucleotide treated groups were injected with OVA/alum on days 0 and 14 and nebulized with OVA in PBS on days 24, 25, and 26. The first OVA application served to sensitize the mice against OVA while the second was a challenge application to provoke an asthmatic reaction. Two days following the final dose, the mice were euthanized, bronchial lavage (BAL) was collected and analyses done.
Lung sections were stained with periodic acid […] (PAS) base stain that stains mucus, which is produced during asthma attacks (Rogers, D. F. Curr. Opin Pharmacol. 2004. 4: 241-250). The number of airways containing mucus as a percentage of the total airways in the lungs was evaluated.

[3] = tested on: DSS-induced colitis model; experiment: Colitis Study F: body weight, stool scores, colon length and weight; assay type: in vivo, Swiss Webb mice; conditions: DSS-treated mice, 50 mg/kg, Day 8
[4] = tested on: IL-1, IL-6, IL-10, IL-12, IL-17, TNF-α, GATA-3; experiment: Colitis Study F: cytokine and GATA-3 mRNA levels in colon; assay type: in vivo, Swiss Webb mice; conditions: day 7
Procedure: In a first group of 8 Swiss Webb mice, 50 mg/kg of ISIS 404071 was injected subcutaneously twice a week for 3 weeks. Two control groups of 8 mice each were injected with PBS twice a week for 3 weeks. After the oligonucleotide treatment, 4% DSS in water was administered ad libitum for 7 days to the experimental group and one PBS control group. Mice were sacrificed at the end of the study on day 7 after DSS was administered.
The mRNA levels of cytokines IL-1, IL-6, IL-10, IL-12, IL-17 and TNF-α were measured in the colon of the mice groups at the end of the study on day 7 after DSS was administered. Colons were homogenized on ice in PBS supplemented with protease inhibitors (Sigma, St. Louis, Mo.) and extracted with rotation at 4° C. for 1 hour. After removal of insoluble material by centrifugation, colon homogenates were used for the cytokine analysis by multiplex ELISA (Meso Scale Discovery, Gaithersburg, Md.) according to the manufacture's protocol. Cytokine levels in colon extracts were normalized to the protein concentration measured by protein assay kit (BioRad, Hercules, Calif.). The levels of pro-inflammatory cytokines, including Th1 cytokines IL-1 and IL-6, elevated by DSS administration were decreased by treatment with ISIS 404071.

[5] = tested on: collagen-induced arthritis model; experiment: Arthritis Study B: collagen-induced arthritis, clinical effects (Example 11); assay type: in vivo, DBA/1J mice
Procedure: The effect of inhibition of Factor XI and its role in fibrin accumulation in the joints leading to joint inflammation and rheumatoid arthritis was evaluated in a murine collagen-induced arthritis (CIA) model. […] Arthritis induced in mice administered collagen can be visually assessed and clinically scored as described by Marty et al. (J Clin Invest, 107:631-640, 2001) where 1 point is given for each swollen digit except the thumb (maximum, 4), 1 point is given for the tarsal or carpal joint, and 1 point is given for the metatarsal or metacarpal joint with a maximum score of […]. Each paw was graded individually, the cumulative clinical arthritic score per mouse reaching a maximum of 22 points
In a group of 20 DBA/1J mice, 20 mg/kg of ISIS 404071 were injected subcutaneously twice a week for ten weeks. In a second group of 20 DBA/1J mice, 20 mg/kg of ISIS 404057 were injected subcutaneously twice a week for ten weeks. In a third control group of 20 DBA/1J mice, 20 mg/kg of ISIS 421208 were injected subcutaneously twice a week for ten weeks. Two control groups of 20 mice each were injected with PBS twice a week for ten weeks.
Two and a half weeks after the first oligonucleotide dose, type II bovine collagen in complete Freund's adjuvant was injected subcutaneously at the base of the tail in all the experimental groups and one PBS control group. A booster injection containing 100 μg collagen type II in incomplete Freund's adjuvant was injected subcutaneously at the base of the tail at a different injection site on day 21 after the first collagen injection in these groups.
Mice in all groups were examined daily after day 30 after the first collagen injection for the visual appearance of arthritis in peripheral joints. The results in Table 22 are expressed as percent change compared to the PBS control except for the liver and spleen weight.

[6] = tested on: DSS-induced colitis model; experiment: Colitis Study C: stool softness/diarrhea; assay type: in vivo, mice; conditions: after seven days
Procedure: A third study on colitis using Factor XI oligonucleotide (ISIS 404071, SEQ ID NO: 11) was conducted. The study was performed essentially as described earlier in this example. A stool softness/diarrhea study was conducted.

[7] = DBA/1J mice, 20 mg/kg s.c. twice a week for ten weeks, end of study

## TGGTAATCCACTTTCAGAGG (eT*eG*eG*eT*eA*dA*dT*d[5mC]*d[5mC]*dA*d[5mC]*dT*dT*dT*d[5mC]*eA*eG*eA*eG*eG) [ISIS 404071, 5-10-5 MOE gapmer targeting murine Factor XI, target start site 869]
[1]; Colitis Study E, day 7
  bradykinin levels (in words): decreased
[1]; no human recombinant FXI
  Bradykinin levels in the colons: 0.1 ng/mg
[1]; plus human recombinant FXI 20 ug/mouse/day
  Bradykinin levels in the colons: 0.3 ng/mg
[2]
  mucus production in the lungs (in words): decreased mucus production in the lungs
[2]; BALB/c mice, 50 mg/kg s.c. twice a week for 4 weeks, PAS stain of lung sections
  Mucus production, % airways containing mucus: 34 % airways
[3]
  Stool score: 2
[4]; Colitis Study F
  pro-inflammatory cytokines incl. IL-1 and IL-6 in colon (in words): decreased
[4]; DSS-treated mice, 50 mg/kg
  GATA-3 mRNA level in the colon: 359 % of PBS treated animals
  IL-1 mRNA level in the colon: 1189 % of PBS treated animals
  IL-6 mRNA level in the colon: 1056 % of PBS treated animals
  IL-10 mRNA level in the colon: 202 % of PBS treated animals
  IL-12 mRNA level in the colon: 234 % of PBS treated animals
  IL-17 mRNA level in the colon: 787 % of PBS treated animals
  TNF-α mRNA level in the colon: 1127 % of PBS treated animals
[5]; Arthritis Study B, 20 mg/kg twice a week for ten weeks, compared to untreated mice
  amount of arthritis assessed (in words): significantly decreased the amount of arthritis
[5]; [7]
  % of CIA: 64%
  % of paws affected: 20%
  Average no. of paws affected: 0.82
  Clinical severity of CIA: 4.6
[6]
  stool softness/diarrhea (in words): normal to soft stool but no diarrhea
